Values quoted from earlier work as cited in patent publication US20200222451A1, “Composition” (Optibiotix Limited, priority 2017, published 2020).

Conditions: compared to placebo

chromium picolinate
fat cravings (P<0.0001): reduces | food intake (P<0.0001): reduces | hunger levels (P<0.05): reduces | body weight (P<0.08): decrease
